Test results taken from PMC10408569, “Recruitment of hexahydroquinoline as anticancer scaffold targeting inhibition of wild and mutants EGFR (EGFR^WT, EGFR^T790M, and EGFR^L858R)” (Journal of Enzyme Inhibition and Medicinal Chemistry, 2023).

Assay: Cytotoxic effects in vitro on normal lung cells
Assay type: cell-based
Details: IMR-90 normal lung fibroblast cells; human normal lung fibroblast (IMR-90); read-out: IC50, cytotoxicity towards human normal cells IMR-90

For `C#Cc1cccc(Nc2ncnc3cc(OCCOC)c(OCCOC)cc23)c1` [Erlotinib, erlotinib, reference compound], the IC50 was 39.6 ± 1.15 µM.
